Molecules are shown by their SMILES.

For one assay, the target named is LRRK2 G2019S (Homo sapiens, UniProt Q5S007, G2019S). As to the kind of experiment: LRRK2 G2019S Km ATP LanthaScreen assay. It is filed as biochemical.
Sequence of LRRK2 G2019S (Q5S007 whole entry G2019S): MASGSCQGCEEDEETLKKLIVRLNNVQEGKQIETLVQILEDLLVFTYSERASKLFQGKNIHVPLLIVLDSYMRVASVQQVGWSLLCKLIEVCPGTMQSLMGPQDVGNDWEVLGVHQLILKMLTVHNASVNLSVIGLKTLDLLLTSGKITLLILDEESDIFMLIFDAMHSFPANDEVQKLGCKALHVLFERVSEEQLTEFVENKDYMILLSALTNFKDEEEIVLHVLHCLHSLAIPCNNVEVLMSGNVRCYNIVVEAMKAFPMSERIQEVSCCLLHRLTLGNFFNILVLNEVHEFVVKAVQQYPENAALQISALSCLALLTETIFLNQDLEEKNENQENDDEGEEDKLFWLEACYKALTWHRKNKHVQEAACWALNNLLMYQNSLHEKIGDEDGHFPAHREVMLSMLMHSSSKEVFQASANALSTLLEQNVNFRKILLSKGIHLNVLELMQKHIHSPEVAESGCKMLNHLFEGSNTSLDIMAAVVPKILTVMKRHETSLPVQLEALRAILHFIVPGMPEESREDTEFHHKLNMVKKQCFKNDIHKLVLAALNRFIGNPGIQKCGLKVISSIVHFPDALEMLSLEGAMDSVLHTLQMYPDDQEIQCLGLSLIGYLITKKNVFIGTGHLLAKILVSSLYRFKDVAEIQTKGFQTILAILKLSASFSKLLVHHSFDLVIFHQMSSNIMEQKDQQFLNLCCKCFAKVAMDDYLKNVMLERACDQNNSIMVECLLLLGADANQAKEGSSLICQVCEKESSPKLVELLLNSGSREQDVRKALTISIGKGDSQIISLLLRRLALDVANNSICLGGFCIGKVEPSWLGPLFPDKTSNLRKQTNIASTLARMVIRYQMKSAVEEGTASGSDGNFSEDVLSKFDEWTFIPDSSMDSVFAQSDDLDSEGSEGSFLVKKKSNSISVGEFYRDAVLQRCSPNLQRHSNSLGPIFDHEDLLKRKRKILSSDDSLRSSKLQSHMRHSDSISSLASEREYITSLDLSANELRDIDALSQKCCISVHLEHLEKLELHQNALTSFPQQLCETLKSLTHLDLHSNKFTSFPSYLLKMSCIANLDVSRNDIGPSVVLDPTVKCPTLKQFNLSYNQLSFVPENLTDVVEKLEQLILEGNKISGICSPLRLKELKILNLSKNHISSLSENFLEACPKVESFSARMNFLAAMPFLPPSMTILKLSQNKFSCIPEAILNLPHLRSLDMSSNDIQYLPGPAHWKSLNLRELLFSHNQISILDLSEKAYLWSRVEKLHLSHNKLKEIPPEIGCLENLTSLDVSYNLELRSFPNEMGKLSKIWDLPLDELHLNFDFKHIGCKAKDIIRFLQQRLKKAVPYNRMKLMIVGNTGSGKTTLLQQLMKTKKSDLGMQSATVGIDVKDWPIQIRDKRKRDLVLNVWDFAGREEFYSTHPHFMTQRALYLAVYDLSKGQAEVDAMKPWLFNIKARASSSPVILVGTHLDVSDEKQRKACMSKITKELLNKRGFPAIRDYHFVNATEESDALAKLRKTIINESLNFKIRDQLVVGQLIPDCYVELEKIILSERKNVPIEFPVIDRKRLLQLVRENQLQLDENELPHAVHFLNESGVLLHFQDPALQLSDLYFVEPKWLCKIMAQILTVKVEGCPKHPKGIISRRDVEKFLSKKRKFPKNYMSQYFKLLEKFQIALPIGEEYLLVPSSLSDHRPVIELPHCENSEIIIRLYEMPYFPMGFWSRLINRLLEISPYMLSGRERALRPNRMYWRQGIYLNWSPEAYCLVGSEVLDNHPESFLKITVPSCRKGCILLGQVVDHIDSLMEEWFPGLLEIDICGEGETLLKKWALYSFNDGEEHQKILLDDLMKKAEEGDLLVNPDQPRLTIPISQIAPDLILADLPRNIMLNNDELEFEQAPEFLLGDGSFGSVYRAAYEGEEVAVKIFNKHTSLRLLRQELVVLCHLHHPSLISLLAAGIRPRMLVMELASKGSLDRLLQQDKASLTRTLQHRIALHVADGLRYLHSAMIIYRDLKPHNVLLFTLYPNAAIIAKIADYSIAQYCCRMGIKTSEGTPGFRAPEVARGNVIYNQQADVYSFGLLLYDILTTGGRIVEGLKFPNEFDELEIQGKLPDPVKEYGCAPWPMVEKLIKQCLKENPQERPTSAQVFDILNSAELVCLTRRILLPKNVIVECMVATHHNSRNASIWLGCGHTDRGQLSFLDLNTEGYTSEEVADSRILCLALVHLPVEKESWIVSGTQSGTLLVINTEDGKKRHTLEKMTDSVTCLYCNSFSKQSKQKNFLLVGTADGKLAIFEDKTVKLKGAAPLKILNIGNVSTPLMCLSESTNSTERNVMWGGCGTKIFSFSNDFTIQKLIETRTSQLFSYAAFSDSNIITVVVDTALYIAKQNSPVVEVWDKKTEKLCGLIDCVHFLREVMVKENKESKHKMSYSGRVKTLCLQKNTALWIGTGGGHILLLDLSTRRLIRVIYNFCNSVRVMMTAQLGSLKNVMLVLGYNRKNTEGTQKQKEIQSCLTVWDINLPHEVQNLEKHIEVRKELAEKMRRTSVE
Details: not given
Regarding `CO[C@H]1C[C@H](C(=O)Nc2cc3cc(C4(C#N)CC45CC5)ccc3cn2)C1.O=C(O)C(F)(F)F` (stereo partly shown) [Ex-1.1], the “LRRK2 pIC50” value came out at 8.96.

Still in this assay, the particulars now being: read-out: LRRK2 pIC50 (converted).
Consider `CC1CC1(C#N)c1ccc2cnc(NC(=O)C3CC3)cc2c1` (single isomer, unassigned) [Ex-18.8, (R or S)-N-(6-(1-cyano-2-methylcyclopropyl)isoquinolin-3-yl)cyclopropanecarboxamide], for which the IC50 was 5.37 nM.

Take `N#CC1(c2cc3cc(NC(=O)C4CC4)ncc3cc2F)CC12CC2` (single isomer, unassigned) [Ex-18.9, (R or S)-N-(6-(1-cyanospiro[2.2]pentan-1-yl)-7-fluoroisoquinolin-3-yl)cyclopropanecarboxamide]: the IC50 was 35.5 nM. On to `N#CC1(c2cc3cc(NC(=O)C4CC4)ncc3cc2F)CC12CC2` (single isomer, unassigned) [Ex-18.10, (R or S)-N-(6-(1-cyanospiro[2.2]pentan-1-yl)-7-fluoroisoquinolin-3-yl)cyclopropanecarboxamide], for which the IC50 is 12.6 nM. In the case of `N#CC1(c2ccc3cnc(NC(=O)C4CC45CCOCC5)cc3c2)CC12CC2` (single isomer, unassigned) [Ex-18.11, (R or S)-N-(6-((R or S)-1-cyanospiro[2.2]pentan-1-yl)isoquinolin-3-yl)-6-oxaspiro[2.5]octane-1-carboxamide], the IC50 is 9.55 nM.

Turning to `N#CC1(c2ccc3cnc(NC(=O)C4CC45CCOCC5)cc3c2)CC12CC2` (single isomer, unassigned) [Ex-18.12, (R or S)-N-(6-((R or S)-1-cyanospiro[2.2]pentan-1-yl)isoquinolin-3-yl)-6-oxaspiro[2.5]octane-1-carboxamide], the IC50 is 1.62 nM. Take `N#CC1(c2cc3cc(NC(=O)C4CC4c4ccccn4)ncc3cc2F)CC12CC2` (single isomer, unassigned) [Ex-18.13, (1R,2R or 1S,2S)-N-(6-((R or S)-1-cyanospiro[2.2]pentan-1-yl)-7-fluoroisoquinolin-3-yl)-2-(pyridin-2-yl)cyclopropane-1-carboxamide]: the IC50 is 7.41 nM. Turning to `N#CC1(c2cc3cc(NC(=O)C4CC4c4ccccn4)ncc3cc2F)CC12CC2` (single isomer, unassigned) [Ex-18.14, (1R,2R or 1S,2S)-N-(6-((R or S)-1-cyanospiro[2.2]pentan-1-yl)-7-fluoroisoquinolin-3-yl)-2-(pyridin-2-yl)cyclopropane-1-carboxamide], the IC50 was 60.3 nM.

On to `Cn1cc(C(=O)Nc2cc3cc(C4(C#N)CC45CC5)ccc3cn2)cn1` (single isomer, unassigned) [Ex-18.15, (R or S)-N-(6-(1-cyanospiro[2.2]pentan-1-yl)isoquinolin-3-yl)-1-methyl-1H-pyrazole-4-carboxamide], for which the IC50 is 0.631 nM. Still for that read-out and setting: in the case of `Cn1cc(C(=O)Nc2cc3cc(C4(C#N)CC45CC5)ccc3cn2)cn1` (single isomer, unassigned) [Ex-18.16, (R or S)-N-(6-(1-cyanospiro[2.2]pentan-1-yl)isoquinolin-3-yl)-1-methyl-1H-pyrazole-4-carboxamide] it was 3.09 nM. The same measure, in the same setting: in the case of `CCC(=O)N1CC(C(=O)Nc2cc3cc(C4(C#N)CC45CC5)ccc3cn2)C1` (single isomer, unassigned) [Ex-19.1, (R or S)-N-(6-(1-cyanospiro[2.2]pentan-1-yl)isoquinolin-3-yl)-1-propionylazetidine-3-carboxamide] it was 10.7 nM; in that of `CC(C)(O)C1CC1C(=O)Nc1cc2cc(C3CCN(C4(C)COC4)CC3)c(Cl)cc2cn1` (single isomer, unassigned) [Ex-22.1, (1R,2R or 1S,2S)-N-(7-chloro-6-(1-(3-methyloxetan-3-yl)piperidin-4-yl)isoquinolin-3-yl)-2-(2-hydroxypropan-2-yl)cyclopropanecarboxamide], 4.47 nM.

With `O=C(Nc1cc2cc(C3CCN(C4COC4)CC3)c(Cl)cc2cn1)[C@@H]1CCCCO1` [Ex-1.10, (S)-N-(7-chloro-6-(1-(oxetan-3-yl)piperidin-4-yl)isoquinolin-3-yl)tetrahydro-2H-pyran-2-carboxamide], the IC50 is 3.98 nM. The same measure, in the same setting: in the case of `C[C@H]1CC(F)(F)CC[C@H]1C(=O)Nc1cc2cc(C3CCN(C4COC4)CC3)c(Cl)cc2cn1` [Ex-1.11, (1R,2S)-N-(7-chloro-6-(1-(oxetan-3-yl)piperidin-4-yl)isoquinolin-3-yl)-4,4-difluoro-2-methylcyclohexane-1-carboxamide] it was 39.8 nM; in that of `O=C(Nc1cc2cc(C3CCN(C4COC4)CC3)c(Cl)cc2cn1)[C@@H]1C[C@@H](O)[C@H](F)C1` [Ex-1.12, (1R,3R,4R)-N-(7-chloro-6-(1-(oxetan-3-yl)piperidin-4-yl)isoquinolin-3-yl)-3-fluoro-4-hydroxycyclopentane-1-carboxamide], 9.33 nM; in that of `O=C(Nc1cc2cc(C3CCN(C4COC4)CC3)c(Cl)cc2cn1)[C@H]1C[C@H]1F` [Ex-1.13, (1R,2R)-N-(7-chloro-6-(1-(oxetan-3-yl)piperidin-4-yl)isoquinolin-3-yl)-2-fluorocyclopropane-1-carboxamide], 2.45 nM. On the same count and under the same terms, in the case of `O=C(C[C@@H](O)C(F)(F)F)Nc1cc2cc(C3CCN(C4COC4)CC3)c(Cl)cc2cn1` [Ex-1.35, (R)-N-(7-chloro-6-(1-(oxetan-3-yl)piperidin-4-yl)isoquinolin-3-yl)-4,4,4-trifluoro-3-hydroxybutanamide] it was 26.3 nM. In the case of `Cn1cc(C(=O)Nc2cc3cc(C4CCN(C5COC5)CC4)c(Cl)cc3cn2)cn1` [Ex-1.36, N-(7-chloro-6-(1-(oxetan-3-yl)piperidin-4-yl)isoquinolin-3-yl)-1-methyl-1H-pyrazole-4-carboxamide], the IC50 is 5.89 nM. The same measure, in the same setting: the result for `Cc1nc(C(=O)Nc2cc3cc(C4CCN(C5COC5)CC4)c(Cl)cc3cn2)co1` [Ex-1.37, N-(7-chloro-6-(1-(oxetan-3-yl)piperidin-4-yl)isoquinolin-3-yl)-2-methyloxazole-4-carboxamide] reads 12.6 nM; that for `O=C(Nc1cc2cc(C3CCN(C4COC4)CC3)c(Cl)cc2cn1)c1cocn1` [Ex-1.38, N-(7-chloro-6-(1-(oxetan-3-yl)piperidin-4-yl)isoquinolin-3-yl)oxazole-4-carboxamide], 11.5 nM; that for `CC1(N2CCC(c3cc4cc(NC(=O)C5CC5C#N)ncc4cc3Cl)CC2)COC1` (stereo not shown) [Ex-2.8], 8.32 nM. For the compound `CCOC1CC1C(=O)Nc1cc2cc(C3CCN(C4(C)COCC4O)CC3)c(Cl)cc2cn1` (stereo not shown) [Ex-2.10], the IC50 was 1.15 nM.

Take `CC1(C)CC1C(=O)Nc1cc2cc(C3CCN(C4(C)COCC4O)CC3)c(Cl)cc2cn1` (stereo not shown) [Ex-2.11]: the IC50 was 2 nM. With `CC1(C)CC1C(=O)Nc1cc2cc(C3CCN(C4(C)COCC4O)CC3)c(Cl)cc2cn1` (stereo not shown) [Ex-2.12], the IC50 was 0.355 nM.

As for `CC(C)(O)C1CC(C(=O)Nc2cc3cc(C4CCN(C5(C)COCC5O)CC4)c(Cl)cc3cn2)C1` (stereo not shown) [Ex-2.13], the IC50 was 0.174 nM. On the same count and under the same terms, in the case of `CC(C)(O)C1CC(C(=O)Nc2cc3cc(C4CCN(C5(C)COCC5O)CC4)c(Cl)cc3cn2)C1` (stereo not shown) [Ex-2.14] it was 0.186 nM; in that of `CC1(N2CCC(c3cc4cc(NC(=O)C5C6COCC65)ncc4cc3Cl)CC2)COCC1O` (stereo not shown) [Ex-2.15], 0.214 nM. `CC1(N2CCC(c3cc4cc(NC(=O)C5CC56CCC(F)(F)CC6)ncc4cc3Cl)CC2)COCC1O` (stereo not shown) [Ex-2.16]: the IC50 is 0.407 nM.

Turning to `CC1(N2CCC(c3cc4cc(NC(=O)C5CC56CCC(F)(F)CC6)ncc4cc3Cl)CC2)COCC1O` (stereo not shown) [Ex-2.17], the IC50 is 4.27 nM. Same read-out and setting: the result for `CC(C)(O)C1CC1C(=O)Nc1cc2cc(C3CCN(C4(C)COCC4O)CC3)c(Cl)cc2cn1` (stereo not shown) [Ex-2.20] reads 11.5 nM; that for `CC(C)(O)C1CC1C(=O)Nc1cc2cc(C3CCN(C4(C)COCC4O)CC3)c(Cl)cc2cn1` (stereo not shown) [Ex-2.21], 0.0813 nM; that for `CC1(N2CCC(c3cc4cc(NC(=O)C5CC56CCOCC6)ncc4cc3Cl)CC2)CCOC1` (stereo not shown) [Ex-2.22], 4.57 nM.

For `CC1(N2CCC(c3cc4cc(NC(=O)C5CC56CCOCC6)ncc4cc3Cl)CC2)CCOC1` (stereo not shown) [Ex-2.23], the IC50 was 0.166 nM. With `CC(C)(O)C1CC1C(=O)Nc1cc2cc(C3CCN(C4(C)CCOC4)CC3)c(Cl)cc2cn1` (stereo not shown) [Ex-2.24], the IC50 was 0.257 nM.

Regarding `CC1(N2CCC(c3cc4cc(NC(=O)C5CCCOC5)ncc4cc3Cl)CC2)COCC1O` (stereo not shown) [Ex-2.25], the IC50 is 0.0813 nM. Still for that read-out and setting: the result for `CC(C)OC1CCC(C(=O)Nc2cc3cc(C4CCN(C5(C)COCC5O)CC4)c(Cl)cc3cn2)CO1` (stereo not shown) [Ex-2.27] reads 0.324 nM. Take `CC1(N2CCC(c3cc4cc(NC(=O)[C@@H]5CCCO5)ncc4cc3Cl)CC2)COCC1O` (stereo partly shown) [Ex-2.28]: the IC50 is 0.513 nM.

As to `CC1(C)CC(C(=O)Nc2cc3cc(C4CCN(C5(C)COCC5O)CC4)c(Cl)cc3cn2)CO1` (stereo not shown) [Ex-2.29], the IC50 is 0.234 nM.

Consider `CC1(C)CC(C(=O)Nc2cc3cc(C4CCN(C5(C)COCC5O)CC4)c(Cl)cc3cn2)CO1` (stereo not shown) [Ex-2.30], for which the IC50 was 0.126 nM. Same read-out and setting: in the case of `CC(C)(O)C1CC1C(=O)Nc1cc2cc(C3(C#N)CC34CC4)ccc2cn1` (stereo not shown) [Ex-2.31] it was 0.224 nM; in that of `CC1(N2CCC(c3cc4cc(NC(=O)C5CC5C#N)ncc4cc3Cl)CC2)COCC1O` (stereo not shown) [Ex-2.32], 0.0813 nM. Still for that read-out and setting: the result for `CC1(C)CC(C(=O)Nc2cc3cc(C4CCN(C5(C)COCC5O)CC4)c(Cl)cc3cn2)CCO1` (stereo not shown) [Ex-2.34] reads 1.7 nM; that for `CC1(C)CC(C(=O)Nc2cc3cc(C4CCN(C5(C)COCC5O)CC4)c(Cl)cc3cn2)CCO1` (stereo not shown) [Ex-2.35], 2.63 nM; that for `Cn1cc(C2CC2C(=O)Nc2cc3cc(C4CCN(C5(C)COCC5O)CC4)c(Cl)cc3cn2)cn1` (stereo not shown) [Ex-2.36], 0.55 nM. For `Cn1cc(C2CC2C(=O)Nc2cc3cc(C4CCN(C5(C)COCC5O)CC4)c(Cl)cc3cn2)cn1` (stereo not shown) [Ex-2.37], the IC50 was 0.0813 nM. The same measure, in the same setting: the result for `N#CC1(c2ccc3cnc(NC(=O)C4CC4c4ccccn4)cc3c2)CC12CC2` (stereo not shown) [Ex-2.38] reads 2.04 nM; that for `N#CC1(c2ccc3cnc(NC(=O)C4CC4c4ccccn4)cc3c2)CC12CC2` (stereo not shown) [Ex-2.39], 2.29 nM; that for `N#CC1(c2ccc3cnc(NC(=O)C4CC4c4ccccn4)cc3c2)CC12CC2` (stereo not shown) [Ex-2.40], 0.575 nM.

As to `N#CC1(c2ccc3cnc(NC(=O)C4CC4c4ccncc4)cc3c2)CC12CC2` (stereo not shown) [Ex-2.41], the IC50 was 1.86 nM.

(Values after patent US20240398784A1, “C-LINKED ISOQUINOLINE AMIDES AS LRRK2 INHIBITORS, PHARMACEUTICAL COMPOSITIONS, AND USES THEREOF” (Merck Sharp & Dohme LLC, priority 2021, published 2024).)
